Experimental data: patent US20140335050A1, “METHODS, COMPOSITIONS, AND KITS FOR THE TREATMENT OF CANCER” (The General Hospital Corporation, priority 2011, published 2014)

Key:
Assay type in all cases: cell-based, human
[1] = tested on: MU89 cell line; test: Western blot (BRAF, Melan-A/MART-1, TRP-2, phosphorylated MEK and ERK)
Description: A. Western blot performed on extracts of the MU89 cell line treated as indicated for three days. Extracts were probed with antibodies to BRAF, Melan-A/MART-1, TRP-2, or beta-Actin. 30 μg of total protein was loaded in each lane of the gel. […] B. Protein gel electrophoresis was performed using 30 μg of total protein extracts prepared from the indicated cell lines. Cells were untreated (control) or treated with 0.15 μg/ml of BIIB021 for three days. After transfer Western blots were probed with antibodies to phosphorylated MEK (p-MEK) or β-Actin.
FIG. 17 is a series of Western blots that show changes in protein levels and state of phosphorylation after treatment with an Hsp90 inhibitor. A primary Anti BRAF (H145) antibody was used at a 1:5000 dilution. A secondary Goat anti rabbit antibody was used at a dilution of 1:5000. […]
To address the effect of Hsp90 inhibition on the MAP kinase pathway, protein levels and signaling activity (protein phosphorylation levels) of the proteins in this pathway were analyzed directly. […]
Cell lysates were prepared using RIPA buffer from Santa Cruz (Santa Cruz, Calif.) containing protease and phosphatase inhibitors. Protein concentrations were determined using Bradford assay from BioRad (Hercules, Calif.). […] Sizes of proteins were determined by comparison to the Broad prestained protein standard ladder from BioRad (Hercules, Calif.).

[2] = tested on: A375 tumor cells; test: Western blot (BRAF, phosphorylated MEK and ERK)
Description: FIG. 17 is a series of Western blots that show changes in protein levels and state of phosphorylation after treatment with an Hsp90 inhibitor. A primary Anti BRAF (H145) antibody was used at a 1:5000 dilution. A secondary Goat anti rabbit antibody was used at a dilution of 1:5000. 30 ug total protein was added to each well.
Cell lysates were prepared using RIPA buffer from Santa Cruz (Santa Cruz, Calif.) containing protease and phosphatase inhibitors. Protein concentrations were determined using Bradford assay from BioRad (Hercules, Calif.). Equal amounts of protein were loaded in each well for PAGE analysis. Proteins were transferred to PVDF membranes from Pierce Biotechnology (Rockford, Ill.). Blocking and both primary and secondary antibody incubations were performed using Starting Block from Pierce (Rockford, Ill.). Blots were washed with 1×TBS with 0.5% tween 20. Primary antibodies used BRAF H-145 and TRP-2 from Santa Cruz (Santa Cruz, Calif.), and Phos ERK from Cell Signaling Technologies (Danvers, Mass.) beta actin from Sigma (St. Louis, Mo.). Goat anti-rabbit HRP conjugated secondary antibody was purchased from Pierce (Rockford, Ill.). Chemiluminesce was performed using the Femto kit form Pierce (Rockford, Ill.). […] Sizes of proteins were determined by comparison to the Broad prestained protein standard ladder from BioRad (Hercules, Calif.).

[3] = tested on: Raji B cell lymphoma cells; test: Surface antibody staining and flow cytometry (MHC Class I/II)
Description: (§1) Intracellular staining and flow cytometric analyses of cytoplasmic Melan-A/MART-1, and gp100 expression were performed as described previously. Cells were fixed with 1% formaldehyde, permeabilized with 0.1% saponin, stained with monoclonal antibodies to melanocyte antigens. Antibodies were obtained with specificity for: Melan-A/MART-1 from Vector Labs (Burlingame, Calif.); gp100/HMB45 from DakoCytomation (Carpinteria, Calif.) and then visualized with goat anti-mouse FITC-conjugated secondary antibody from Invitrogen (Frederick, Md.). The level of EGFP was determined by flow cytometry of unfixed cells washed and resuspended in 1×PBS. Surface staining of MHC Class I was carried out using the antibody W6/32 on cells harvested with Cell Stripper from MediaTech Inc. (Manassas, Va.) and carried out on ice.
(§2) Cell were seeded at 1×10^6 cells in a T25 flask with 10 ml of media for the 4 day IFN-beta pre-treatments. Cells were then harvested and plated in 24 well plate at 1×10^5 cells per well in 1 ml of media for 3 day treatments.
(§3) For surface staining of HLA Class I and II antigens, cells were harvested using CellStripper™ from Mediatech (Manassas, Va.). All staining steps were performed on ice. Following a first incubation with antibody to Class I (W6/32) or Class II (L243) for 30 minutes. Stained cells were washed twice with cold PBS and then stained with a goat anti-mouse FITC secondary antibody to allow for quantitative analysis by flow cytometry. For evaluation of cytoplasmic antigens, including Melan-A/MART-1 and gp100, cells were first fixed in paraformaldehyde and permeabilized with saponin as previously described. Staining for cytoplasmic antigens was carried out at room temperature (22° C.).

[4] = tested on: HeLa cervical carcinoma cells; test: as above; details: for Class I MHC, geometric mean of surface staining (W6/32): 4 day IFN-β pre-treatment (5000 Units/ml), with PU-H71 0.3 where labelled (label IFN-β: no inhibitor)
Description: as §1, §2, §3

[5] = tested on: MCF-7 breast cancer cells; test: as above
Description: as §1, §2, §3

[6] = tested on: U2-OS osteosarcoma cells; test: as above
Description: as §1, §2, §3

[7] = tested on: Jurkat T cell lymphoma cells; test: as above
Description: as §1, §3

[8] = three days, IFN-β 5000 Units/ml, IFN-γ 100 ng/ml, PU-H71 0.3 mg/ml
[9] = HeLa cells, Table 20, single agent or simultaneous combination
[10] = MCF-7 cells, Table 20, single agent or simultaneous combination
[11] = U2-OS cells, Table 20, single agent or simultaneous combination
[12] = U2-OS, three days, IFN-β 5000 Units/ml, IFN-γ 100 ng/ml, PU-H71 0.3 mg/ml

CO[C@H]1/C=C\C=C(/C)C(=O)NC2=CC(=O)C(NCCN3CCCC3)=C(C[C@@H](C)C[C@H](OC)[C@H](O)[C@@H](C)/C=C(\C)[C@@H]1OC(N)=O)C2=O [17-AEP]
BRAF protein level (Western blot) ([1]; 3 days): reduces levels of BRAF
Phosphorylated MEK and Phosphorylated ERK levels (Western blot) ([1]; 3 days (FIG. 17)): decreased levels
BRAF protein level (Western blot) ([2]; 3 days): reduces levels of BRAF
Phosphorylated MEK and Phosphorylated ERK levels (Western blot) ([2]; 3 days (FIG. 17)): decreased levels

CC(C)NCCCn1c(Sc2cc3c(cc2I)OCO3)nc2c(N)ncnc21 [PU-H71]
Class I MHC, geometric mean of surface staining (W6/32) ([3]; 4 day IFN-β pre-treatment (5000 Units/ml), then 3 days with fresh IFN-β, with PU-H71 0.3 mg/ml where labelled (label IFN-β: no inhibitor)): 129
Class I MHC, geometric mean of surface staining (W6/32) ([3]; 4 day IFN-β pre-treatment (5000 Units/ml), then 3 days without IFN-β, with PU-H71 0.3 mg/ml where labelled (label IFN-β: no inhibitor)): 139
L243 (MHC Class II surface staining) ([3]; single agent): 79.0
Class I MHC, geometric mean of surface staining (W6/32) ([3]; single agent for 3 days, no IFN-β pre-treatment, IFN-β 5000 Units/ml, PU-H71 0.3 mg/ml): 157
MHC Class I, geometric mean of surface staining (W6/32) [3, 8]: 139
MHC Class II, geometric mean of surface staining (L2443) [3, 8]: 160
MHC Class I, geometric mean of surface staining (W6/32) ([3]; three days, IFN-β 5000 Units/ml, PU-H71 0.075-0.3 mg/ml): 79
L243 (MHC Class II surface staining) ([4]; HELA, single agent): 3.5
L243 (MHC Class II surface staining) [4, 9]: 3.8
W6/32 (MHC Class I surface staining) [4, 9]: 286.6
L243 (MHC Class II surface staining) ([4]; HeLa cells, Table 21, no pre-treatment, treatment as labelled): 4
L243 (MHC Class II surface staining) ([4]; HeLa cells, Table 21, pre-treatment IFN-G (3 days), then treatment as labelled): 185
L243 (MHC Class II surface staining) ([4]; HeLa cells, Table 21, substance given as pre-treatment (3 days) only, no subsequent treatment): 6
Class I MHC, geometric mean of surface staining (W6/32) ([4]; HeLa, then 3 days with fresh IFN-β): 137
Class I MHC, geometric mean of surface staining (W6/32) ([4]; HeLa, then 3 days without IFN-β): 168
Class II antigen level, sequential treatment ([4]; HeLa, IFN-gamma for 3 days, subsequently PU-H71): significantly greater than that achieved with IFN-gamma alone
Class I expression, combination ([4]; HeLa, PU-H71 together with IFN-beta): do not show the synergy
MHC Class II, geometric mean of surface staining (L2443) ([4]; HeLa, three days, IFN-β 5000 Units/ml, IFN-γ 100 ng/ml, PU-H71 0.3 mg/ml): 19
MHC Class I, geometric mean of surface staining (W6/32) ([4]; HeLa, three days, IFN-β 5000 Units/ml, IFN-γ 100 ng/ml, PU-H71 0.3): 402
MHC Class I, geometric mean of surface staining (W6/32) ([4]; HeLa, three days, IFN-β 5000 Units/ml, PU-H71 0.075-0.3): 182
Class I MHC, geometric mean of surface staining (W6/32) ([5]; MCF-7, 4 day IFN-β pre-treatment (5000 Units/ml), then 3 days with fresh IFN-β, with PU-H71 0.3 mg/ml where labelled (label IFN-β: no inhibitor)): 213
Class I MHC, geometric mean of surface staining (W6/32) ([5]; MCF-7, 4 day IFN-β pre-treatment (5000 Units/ml), then 3 days without IFN-β, with PU-H71 0.3 mg/ml where labelled (label IFN-β: no inhibitor)): 227
Class II induction, combination ([5]; MCF-7, PU-H71 and IFN-gamma): inhibited
Class I stimulation induced with IFN-beta or IFN-gamma, combination ([5]; MCF-7, addition of PU-H71): diminished
L243 (MHC Class II surface staining) ([5]; MCF-7, single agent): 4.7
Class I MHC, geometric mean of surface staining (W6/32) ([5]; MCF-7, single agent for 3 days, no IFN-β pre-treatment, IFN-β 5000 Units/ml, PU-H71 0.3 mg/ml): 61
MHC Class I, geometric mean of surface staining (W6/32) ([5]; MCF-7, three days, IFN-β 5000 Units/ml, PU-H71 0.075-0.3 mg/ml): 61
L243 (MHC Class II surface staining) [5, 10]: 4.7
W6/32 (MHC Class I surface staining) [5, 10]: 113.0
L243 (MHC Class II surface staining) [6, 11]: 1.9
W6/32 (MHC Class I surface staining) [6, 11]: 109.0
Class I induction, combination ([6]; U2-OS, PU-H71 in combination with interferons): highest levels are achieved
Class II antigen induction seen with IFN-gamma, combination ([6]; U2-OS, PU-H71 together with IFN-gamma): prevented
L243 (MHC Class II surface staining) ([6]; U2-OS, single agent): 1.8
MHC Class I, geometric mean of surface staining (W6/32) [6, 12]: 87
MHC Class II, geometric mean of surface staining (L2443) [6, 12]: 4
MHC Class I, geometric mean of surface staining (W6/32) ([6]; U2-OS, three days, IFN-β 5000 Units/ml, PU-H71 0.075-0.3 mg/ml): 108
L243 (MHC Class II surface staining) ([7]; single agent): 1.2
MHC Class I, geometric mean of surface staining (W6/32) ([7]; three days, IFN-β 5000 Units/ml, IFN-γ 100 ng/ml, PU-H71 0.3 μg/ml): 24
MHC Class II, geometric mean of surface staining (L2443) [7, 8]: 1
MHC Class I, geometric mean of surface staining (W6/32) ([7]; three days, IFN-β 5000 Units/ml, PU-H71 0.075-0.3 μg/ml): 41
